According to publication PMC4579270, “Identification and Characterization of an Irreversible Inhibitor of CDK2” (Chemistry & Biology, 2015):
Where two headings read alike, the source gives them in different places.

Assays:
[1] = system: phosphorylation of Rb at Thr821 in SKUT-1B cells; test: Inhibition of Rb phosphorylation in cells (western blot); type: cell-based; details: for inhibition at 50 µM: Homo sapiens, Skut1B, 1 hr exposure
Description: The cellular potency of NU6300 was examined by measuring the inhibition of Rb phosphorylation following exposure of SKUT-1B cells to the inhibitor for 1 hr. Pre-incubation with 50 μM NU6300 inhibited phosphorylation of Rb at […], a known CDK2 phosphorylation site, by 43%. […] This difference just reached statistical significance (p = 0.04). […] Representative of three different experiments. […] Protein expression levels of phospho-Rb ([…]) were normalized to the levels of total Rb in respective samples using densitometry. Relative protein expression levels are presented as percentage of inhibition of phosphorylation of Rb ([…]) compared with the control cells for each time point. Error bars represent the mean value and SD from three independent experiments. Statistical analysis was performed using the unpaired Student's t test, one-tailed. Western blot analysis was carried out as described previously ([Thomas et al., 2011]) using rabbit anti-[…] phospho-Rb antibody (Invitrogen) or mouse antihuman Rb antibody (BD Pharmingen) to detect phosphorylated and total retinoblastoma protein, respectively. Sample preparation is described in Supplemental Experimental Procedures. page 14: formate) before cryo-coolling. Data processing was carried out using programs of the CCP4 suite (CCP4, 1994). The structure of NU6300 bound to CDK2/cyclin A was solved by molecular replacement using Phaser (McCoy et al., 2007), using as the search model a high-resolution structure of a recruitment peptide bound to CDK2/cyclin A ((Cheng et al., 2006) PDB code 2CCH). A single clear solution was found with an inhibitor bound to each of the two copies of the binary complex in the asymmetric unit. This solution was then subjected to rigid body refinement in REFMAC (Murshudov et al., 1997), to reveal unambiguous electron density in the CDK2 ATP-binding site, consistent with the expected shape of the inhibitor. A model of NU6300 was created using Coot (Emsley et al., 2010). The inhibitor atoms were kept in all subsequent models during refinement carried out by additional rounds of manual rebuilding in Coot and restrained refinement in REFMAC5, including TLS refinement. Towards the end of refinement, waters were added using the Coot water picking utility and manually verified. Western blotting SKUT-1B cells (ATCC, Manassas, USA) were grown in MEM medium supplemented with non-essential amino acids, L-Glutamine, sodium pyruvate and 10% (v/v) foetal calf serum (Sigma, UK). […] Cells were harvested at different time points after the washout and lysed by adding PhosphoSafe extraction reagent (Merck, UK) containing protease inhibitor cocktail (Roche, UK) at the manufacturer's recommended dilution. The harvested cell suspension was placed in an eppendorf tube on ice, centrifuged at 13,000x g for 5 min, and the supernatant (cell lysate) removed for analysis. Subsequent western blot analysis was carried out as described in (Thomas et al., 2011) using rabbit anti-[…] phospho-Rb antibody (Invitrogen, Paisley, UK Cat No. 44-[…]) or mouse anti-human Rb antibody (BD Pharmingen, Oxford, UK Cat No. 554136) to detect phosphorylated and total retinoblastoma protein, respectively.

[2] = system: human MCF-7 breast carcinoma cells; design: method as in Davies et al., 2002; details: ref Davies et al., 2002; cited from earlier work

Question: Which “inhibitory activity lost after washout” value ([1]; 50 μM, 1 hr of washout) does the source give for `NS(=O)(=O)c1ccc(Nc2nc(OCC3CCCCC3)c3nc[nH]c3n2)cc1` [NU6102, 4-((6-(Cyclohexylmethoxy)-9H-purin-2-yl)amino)benzenesulfonamide] here?
Answer: just over half

Question: And the inhibition at 50 µM ([1]; before washout, read-out: inhibition of phosphorylation of Rb at Thr821)?
Answer: 85%

Question: And the inhibition at 50 µM ([1]; then 1-hr washout in drug-free media, read-out: inhibition of phosphorylation of Rb at Thr821 after washout)?
Answer: 40%

Question: And the GI50 [2]?
Answer: 8 µM
